Laboratory results: ChEMBL document CHEMBL1201862, “PubChem BioAssay data set” (2004)
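Following 48 hours of exposure in 96-well plates, responses at five concentrations were used to interpolate endpoints linearly. At the GI50, growth is halved.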 Activity calls are given as the source filed them. Rule as the data show it: active = GI50 up to about 1.1 µM and inactive = higher.

Assays:
Test in all cases: growth of human tumour cells (NCI), 48 h
NCI-H522 = system: NCI-H522
UACC-62 = system: UACC-62
NCI/ADR-RES = system: NCI/ADR-RES
EKVX = system: EKVX
SF-295 = system: SF-295
SW-620 = system: SW-620
A549 = system: A549
SR = system: SR
HOP-92 = system: HOP-92
HT-29 = system: HT-29
OVCAR-3 = system: OVCAR-3
HOP-62 = system: HOP-62
HL-60 = system: HL-60
UACC-257 = system: UACC-257
SNB-19 = system: SNB-19
Hs-578T = system: Hs-578T
OVCAR-5 = system: OVCAR-5
CCRF-CEM = system: CCRF-CEM
M14 = system: M14
UO-31 = system: UO-31
MDA-MB-435 = system: MDA-MB-435
SK-OV-3 = system: SK-OV-3
NCI-H23 = system: NCI-H23
IGROV-1 = system: IGROV-1
ACHN = system: ACHN
NCI-H460 = system: NCI-H460
HCT-15 = system: HCT-15
786-0 = system: 786-0
SF-268 = system: SF-268
K562 = system: K562
BT-549 = system: BT-549
TK-10 = system: TK-10
CAKI-1 = system: CAKI-1
OVCAR-8 = system: OVCAR-8
MDA-N = system: MDA-N
HCC 2998 = system: HCC 2998
Malme-3M = system: Malme-3M
MOLT-4 = system: MOLT-4
SN12C = system: SN12C
HCT-116 = system: HCT-116
RPMI-8226 = system: RPMI-8226
LOX IMVI = system: LOX IMVI
A498 = system: A498
U-251 = system: U-251
NCI-H226 = system: NCI-H226
KM12 = system: KM12
RXF 393 = system: RXF 393
SK-MEL-28 = system: SK-MEL-28
OVCAR-4 = system: OVCAR-4
COLO 205 = system: COLO 205
SK-MEL-5 = system: SK-MEL-5

In the case of `COc1ccc2c3c1O[C@H]1C(OC)C=CC4C(C2)N(Cc2cccs2)CCC341` (some centres not stated), the GI50 (NCI-H522) is reported as > 100 µM (inactive), the GI50 (UACC-62) is reported as > 10 µM (inactive) and the GI50 (NCI/ADR-RES) is reported as 33.7 µM (inactive). The GI50 (EKVX) was 88.3 µM (inactive), the GI50 (SF-295) was 61 µM (inactive) and the GI50 (SW-620) was > 100 µM (inactive). For the same molecule, the GI50 (A549) was 53.8 µM (inactive), the GI50 (SR) was 75.5 µM (inactive) and the GI50 (HOP-92) was > 100 µM (inactive). The GI50 (HT-29) was 69.7 µM (inactive), the GI50 (OVCAR-3) was 45.4 µM (inactive) and the GI50 (HOP-62) was > 100 µM (inactive). For the same molecule, the GI50 (HL-60) was 24 µM (inactive), the GI50 (UACC-257) was 44.4 µM (inactive) and the GI50 (SNB-19) was > 100 µM (inactive). For the same molecule, the GI50 (Hs-578T) was > 100 µM (inactive), the GI50 (OVCAR-5) was > 100 µM (inactive) and the GI50 (CCRF-CEM) was 49.7 µM (inactive). The GI50 (M14) was 70.6 µM (inactive), the GI50 (UO-31) was > 100 µM (inactive) and the GI50 (MDA-MB-435) was 41.5 µM (inactive). The GI50 (SK-OV-3) was > 100 µM (inactive), the GI50 (NCI-H23) was 38.8 µM (inactive) and the GI50 (IGROV-1) was > 100 µM (inactive). For the same molecule, the GI50 (ACHN) was > 10 µM (inactive), the GI50 (NCI-H460) was > 100 µM (inactive) and the GI50 (HCT-15) was 55.2 µM. For the same molecule, the GI50 (786-0) was > 100 µM (inactive), the GI50 (SF-268) was > 100 µM (inactive) and the GI50 (K562) was 51.6 µM (inactive). For the same molecule, the GI50 (BT-549) was 40.1 µM (inactive), the GI50 (TK-10) was 92.5 µM (inactive) and the GI50 (CAKI-1) was > 100 µM (inactive). The GI50 (OVCAR-8) was 77.4 µM (inactive), the GI50 (MDA-N) was 60 µM (inactive) and the GI50 (HCC 2998) was > 100 µM (inactive). The GI50 (Malme-3M) was > 100 µM (inactive), the GI50 (MOLT-4) was > 100 µM (inactive) and the GI50 (SN12C) was > 100 µM (inactive). The GI50 (HCT-116) was 49.2 µM (inactive), the GI50 (RPMI-8226) was 62.1 µM (inactive) and the GI50 (LOX IMVI) was > 100 µM (inactive).
With `CCN(CC)CCNc1n[n+]([O-])c2cc([N+](=O)[O-])ccc2[n+]1[O-]` the GI50 (NCI/ADR-RES) was 1.27 µM (inactive), the GI50 (EKVX) was 1.98 µM (inactive) and the GI50 (A498) was 1.79 µM (inactive). For the same molecule, the GI50 (A549) was 0.752 µM (active), the GI50 (HT-29) was 0.374 µM (active) and the GI50 (OVCAR-3) was 0.893 µM (active). For the same molecule, the GI50 (HOP-62) was 0.661 µM (active), the GI50 (U-251) was 1.08 µM (active) and the GI50 (NCI-H226) was 1.7 µM (inactive). The GI50 (SNB-19) was 1.4 µM (inactive), the GI50 (Hs-578T) was 2.59 µM (inactive) and the GI50 (OVCAR-5) was 1.92 µM (inactive). The GI50 (M14) was 0.587 µM (active), the GI50 (UO-31) was 2.94 µM (inactive) and the GI50 (MDA-MB-435) was 1.38 µM (inactive). The GI50 (KM12) was 0.948 µM (active), the GI50 (SK-OV-3) was 1.05 µM (active) and the GI50 (IGROV-1) was 0.191 µM (active). The GI50 (RXF 393) was 1.52 µM (inactive), the GI50 (SF-268) was 1.11 µM (active) and the GI50 (BT-549) was 2.37 µM (inactive). For the same molecule, the GI50 (SK-MEL-28) was 6.32 µM (inactive), the GI50 (OVCAR-4) was 1.31 µM (inactive) and the GI50 (CAKI-1) was 0.337 µM (active). The GI50 (OVCAR-8) was 0.538 µM (active), the GI50 (MDA-N) was 0.863 µM (active) and the GI50 (COLO 205) was 0.605 µM (active). For the same molecule, the GI50 (HCT-116) was 0.483 µM (active), the GI50 (LOX IMVI) was 0.601 µM (active) and the GI50 (SK-MEL-5) was 0.714 µM (active).
